In the supplement of paper PMC11451515:

How the values were obtained:
Assay in all cases: AUC of viability dose-response curve (% viability x log10 dose units); higher = less sensitive
Settings in all cases: 48 h
NOMO1 = tested on: NOMO1
Summary of the method: (§1)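 Leukemia cells adapted to each medium were seeded in 1536-well plates (500 or 1000 cells/well). They were dosed with library compounds in DMSO at 11 threefold doses, 47 μM to 0.79 nM, for 48 h at 37°C. CellTiter-Glo One luminescence was normalised per plate to DMSO and cell-free wells. Area under the curve was integrated by trapezoidal rule over log10 doses on a four-parameter log-logistic fit; curves exceeding full viability were scaled and curves failing quality control removed.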

P12-Ichikawa = tested on: P12-Ichikawa
Summary of the method: as §1

SEM cells = tested on: SEM cells
Summary of the method: as §1

[1] = RPMI 5 mM glucose + 10% dialyzed FBS

| Compound | AUC of viability dose-response curve (NOMO1; HPLM + 10% dialyzed FBS) | AUC of viability dose-response curve (NOMO1; RPMI 5 mM glucose + 10% FBS) | AUC of viability dose-response curve (NOMO1; [1]) | AUC of viability dose-response curve (P12-Ichikawa; HPLM + 10% dialyzed FBS) | AUC of viability dose-response curve (P12-Ichikawa; RPMI 5 mM glucose + 10% FBS) | AUC of viability dose-response curve (P12-Ichikawa; [1]) | AUC of viability dose-response curve (SEM cells; HPLM + 10% dialyzed FBS) | AUC of viability dose-response curve (SEM cells; RPMI 5 mM glucose + 10% FBS) | AUC of viability dose-response curve (SEM cells; [1]) |
| --- | --- | --- | --- | --- | --- | --- | --- | --- | --- |
| COC1=CC=C2/C3=N/CCN3\C(=N/C2=C1OC)NC(=O)C4=CC=CN=C4 | 427 | 462 | 402 | 457 | 427 | 439 | 452 | 419 | 422 |
| CC(C)[C@H](N)C(=O)OCCOC[N]1C=NC2=C1\N=C(N)/NC2=O | 457 | 459 | 474 | 475 | 450 | 458 | 467 | 457 | 465 |
| Cn1cc(C[C@@H](N)C(=O)O)c2ccccc21 | 449 | 448 | 440 | 467 | 472 | 469 | 461 | 406 | 467 |
| COc1cc(/C=C/C(=O)O)ccc1O | 463 | 452 | 438 | 452 | 434 | 441 | 411 | 412 | 460 |
| OCCC#Cc1nc(-c2ccc(F)cc2)c(-c2ccncc2)n1CCCc1ccccc1 | 463 | 465 | 472 | 476 | 467 | 468 | 475 | 467 | 456 |
| CN(C)C(=O)C(CCN1CCC(O)(c2ccc(Cl)cc2)CC1)(c1ccccc1)c1ccccc1 | 448 | 445 | 436 | 460 | 444 | 444 | 445 | 436 | 449 |
| Cc1c[nH]c(-c2cnc(NCCNc3ccc(C#N)cn3)nc2-c2ccc(Cl)cc2Cl)n1 | 398 | 381 | 396 | 397 | 366 | 379 | – | – | – |
| C[C@]12CCC\3=C\4CCC(=O)\C=C4CC[C@H]3[C@@H]1CC[C@@]2(O)CC#N | 436 | 468 | 454 | 473 | 466 | 468 | 437 | 445 | 451 |
